Among the data in patent US9914730B2, “Azaquinazoline inhibitors of Atypical protein Kinase C” (Ignyta, Inc., priority 2012, dated 2018) are IC50 values, retold here.

The experiment concerns the target T1, full-length human PKCι (Homo sapiens, UniProt P41743).
T1 construct: Recombinant, full-length human PKCι expressed in Sf21 insect cells is also commercially available; purchased; host or cells: Sf21 insect cells
T1 sequence (P41743 1-596): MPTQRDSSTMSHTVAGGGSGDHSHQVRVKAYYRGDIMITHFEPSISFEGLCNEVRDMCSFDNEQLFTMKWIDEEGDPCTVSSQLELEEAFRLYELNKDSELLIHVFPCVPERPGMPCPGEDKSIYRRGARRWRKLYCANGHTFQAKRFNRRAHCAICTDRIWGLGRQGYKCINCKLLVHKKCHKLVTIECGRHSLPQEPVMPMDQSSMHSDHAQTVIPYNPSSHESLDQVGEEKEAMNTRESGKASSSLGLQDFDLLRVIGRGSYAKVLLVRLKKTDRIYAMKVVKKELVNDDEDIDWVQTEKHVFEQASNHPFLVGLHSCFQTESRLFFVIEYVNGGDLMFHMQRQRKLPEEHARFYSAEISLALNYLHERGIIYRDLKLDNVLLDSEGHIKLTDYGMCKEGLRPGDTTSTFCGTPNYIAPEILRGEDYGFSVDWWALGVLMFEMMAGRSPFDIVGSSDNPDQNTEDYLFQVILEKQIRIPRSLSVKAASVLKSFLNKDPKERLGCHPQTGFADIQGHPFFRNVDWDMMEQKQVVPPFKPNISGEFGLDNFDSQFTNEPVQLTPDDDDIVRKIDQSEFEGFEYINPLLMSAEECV
In words: PKCι IC50 IMAP assay, full-length PKCι at 150 μM ATP. The class given is biochemical. To be noted: read-out: IC50 in IMAP assay against full length PKCi at 150 μM ATP. The method, boiled down: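 Full-length hPKCι (Sf21) ~15 pM; 5FAM-peptide 100 nM; ATP 150 μM (5× KM^APP); tris pH7.5/MgCl2/EGTA/DTT/Triton, 4% DMSO; 60 min RT; IMAP stop, 2 h; FP 485/530 nm; IC50 from % inhibition curves.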
The term IC50 denotes the point on the concentration scale where inhibition reaches its midpoint. For `Clc1ncc(C2CC2)c2c(N3CCNCC3)nc(-c3ccnc4[nH]ccc34)nc12` [Example 1210, 8-Chloro-5-cyclopropyl-4-piperazin-1-yl-2-(1H-pyrrolo[2,3-b]pyridin-4-yl)-pyrido[3,4-d]pyrimidine], the IC50 was under 100 nM.

On to `CC(C)c1cncc2nc(-c3ccnc4[nH]ccc34)nc(N3CCNCC3)c12` [Example 1211, 5-Isopropyl-4-piperazin-1-yl-2-(1H-pyrrolo[2,3-b]pyridin-4-yl)-pyrido[3,4-d]pyrimidine], for which the IC50 is under 100 nM. The same measure for `FC(F)(F)c1cc2c(-c3nc(N4CCNCC4)c4c(C5CC5)cncc4n3)ccnc2[nH]1` [Example 1212]: under 100 nM. As for `FC(F)(F)[C@H]1CN(c2nc(-c3ccnc4[nH]ccc34)nc3cncc(C4CC4)c23)CCN1` [Example 1213, 5-Cyclopropyl-2-(1H-pyrrolo[2,3-b]pyridin-4-yl)-4-((R)-3-trifluoromethyl-piperazin-1-yl)-pyrido[3,4-d]pyrimidine], the IC50 is under 100 nM. As to `FC(F)(F)[C@@H]1CN(c2nc(-c3ccnc4[nH]ccc34)nc3cncc(C4CC4)c23)CCN1` [Example 1214, 5-Cyclopropyl-2-(1H-pyrrolo[2,3-b]pyridin-4-yl)-4-((S)-3-trifluoromethyl-piperazin-1-yl)-pyrido[3,4-d]pyrimidine], the IC50 was under 100 nM. The same measure for `Cc1cc2c(-c3nc(N4CCNC(C(F)(F)F)C4)c4c(C5CC5)cncc4n3)ccnc2[nH]1` (stereo not shown) [Example 1215, 5-Cyclopropyl-2-(2-methyl-1H-pyrrolo[2,3-b]pyridin-4-yl)-4-(3-trifluoromethyl-piperazin-1-yl)-pyrido[3,4-d]pyrimidine]: under 100 nM; for `Cc1cc2c(-c3nc(N4CCN[C@@H](C5CC5)C4)c4c(C5CC5)cncc4n3)ccnc2[nH]1` [Example 1216, 5-Cyclopropyl-4-((S)-3-cyclopropyl-piperazin-1-yl)-2-(2-methyl-1H-pyrrolo[2,3-b]pyridin-4-yl)-pyrido[3,4-d]pyrimidine]: under 100 nM; for `Cc1cc2c(-c3nc(N4CCNCC4)c4c(C5CC5)cncc4n3)ccnc2[nH]1` [Example 1217, 5-Cyclopropyl-2-(2-methyl-1H-pyrrolo[2,3-b]pyridin-4-yl)-4-piperazin-1-yl-pyrido[3,4-d]pyrimidine]: under 100 nM. The same measure for `FC(F)(F)C1CN(c2nc(-c3ccnc4[nH]ccc34)nc3cncc(C4CC4)c23)CCN1` (stereo not shown) [Example 1218, 5-Cyclopropyl-2-(1H-pyrrolo[2,3-b]pyridin-4-yl)-4-(3-trifluoromethyl-piperazin-1-yl)-pyrido[3,4-d]pyrimidine]: under 100 nM; for `c1ccc(C[C@H]2CN(c3nc(-c4ccnc5[nH]ccc45)nc4cncc(C5CC5)c34)CCN2)cc1` [Example 1219, 4-((S)-3-Benzyl-piperazin-1-yl)-5-cyclopropyl-2-(1H-pyrrolo[2,3-b]pyridin-4-yl)-pyrido[3,4-d]pyrimidine]: under 100 nM; for `c1cc(-c2nc(N3CCN[C@@H](C4CC4)C3)c3c(C4CC4)cncc3n2)c2cc[nH]c2n1` [Example 1220, 5-Cyclopropyl-4-((S)-3-cyclopropyl-piperazin-1-yl)-2-(1H-pyrrolo[2,3-b]pyridin-4-yl)-pyrido[3,4-d]pyrimidine]: under 100 nM.

Consider `N#CC[C@H]1CN(c2nc(-c3ccnc4[nH]ccc34)nc3cncc(C4CC4)c23)CCN1` [Example 1221, {(S)-4-[5-Cyclopropyl-2-(1H-pyrrolo[2,3-b]pyridin-4-yl)-pyrido[3,4-d]pyrimidin-4-yl]-piperazin-2-yl}-acetonitrile], for which the IC50 was under 100 nM.

`c1csc(-c2cc3c(-c4nc(N5CCNCC5)c5c(C6CC6)cncc5n4)ccnc3[nH]2)c1` [Example 1222, 5-Cyclopropyl-4-piperazin-1-yl-2-(2-thiophen-2-yl-1H-pyrrolo[2,3-b]pyridin-4-yl)-pyrido[3,4-d]pyrimidine]: the IC50 is under 100 nM. Consider `c1cc(-c2nc(N3CCNCC3)c3c(C4CC4)cncc3n2)c2cc(C3CC3)[nH]c2n1` [Example 1223, 5-Cyclopropyl-2-(2-cyclopropyl-1H-pyrrolo[2,3-b]pyridin-4-yl)-4-piperazin-1-yl-pyrido[3,4-d]pyrimidine], for which the IC50 was under 100 nM. As for `CCOC(=O)N1CCN(c2nc(-c3ccnc4[nH]c(C(F)(F)F)cc34)nc3cncc(C4CC4)c23)CC1` [Example 1224, 4-[5-Cyclopropyl-2-(2-trifluoromethyl-1H-pyrrolo[2,3-b]pyridin-4-yl)-pyrido[3,4-d]pyrimidin-4-yl]-piperazine-1-carboxylic acid ethyl ester], the figure is 10000 to 40000 nM; as for `Fc1cnc2[nH]ccc2c1-c1nc(N2CCNCC2)c2c(C3CC3)cncc2n1` [Example 1226, 5-Cyclopropyl-2-(5-fluoro-1H-pyrrolo[2,3-b]pyridin-4-yl)-4-piperazin-1-yl-pyrido[3,4-d]pyrimidine], under 100 nM.

Turning to `FC(F)(F)c1cc2c(-c3nc(N4CCOCC4)c4c(C5CC5)cncc4n3)ccnc2[nH]1` [Example 1227, 5-Cyclopropyl-4-morpholin-4-yl-2-(2-trifluoromethyl-1H-pyrrolo[2,3-b]pyridin-4-yl)-pyrido[3,4-d]pyrimidine], the IC50 lay within 10000 to 40000 nM.

Turning to `[2H]C([2H])([2H])c1cc2c(-c3nc(N4CCNCC4)c4c(C5CC5)cncc4n3)ccnc2[nH]1` [Example 1228, 5-Cyclopropyl-4-piperazin-1-yl-2-(2-triduteriomethyl-1H-pyrrolo[2,3-b]pyridin-4-yl)-pyrido[3,4-d]pyrimidine], the IC50 is under 100 nM. As for `CC(C)(C)c1cc2c(-c3nc(N4CCNCC4)c4c(C5CC5)cncc4n3)c(Cl)cnc2[nH]1` [Example 1229, 2-(2-tert-Butyl-5-chloro-1H-pyrrolo[2,3-b]pyridin-4-yl)-5-cyclopropyl-4-piperazin-1-yl-pyrido[3,4-d]pyrimidine], the figure is under 100 nM; as for `Fc1ccc(-c2cc3c(-c4nc(N5CCNCC5)c5c(C6CC6)cncc5n4)ccnc3[nH]2)cc1` [Example 1230, 5-Cyclopropyl-2-[2-(4-fluoro-phenyl)-1H-pyrrolo[2,3-b]pyridin-4-yl]-4-piperazin-1-yl-pyrido[3,4-d]pyrimidine], under 100 nM. As for `CC(C)(C)c1cc2c(-c3nc(N4CCNCC4)c4c(C5CC5)cncc4n3)ccnc2[nH]1` [Example 1231, 2-(2-tert-Butyl-1H-pyrrolo[2,3-b]pyridin-4-yl)-5-cyclopropyl-4-piperazin-1-yl-pyrido[3,4-d]pyrimidine], the figure is under 100 nM; as for `Fc1cnc2[nH]c(C(F)(F)F)cc2c1-c1nc(N2CCNCC2)c2c(C3CC3)cncc2n1` [Example 1232, 5-Cyclopropyl-2-(5-fluoro-2-trifluoromethyl-1H-pyrrolo[2,3-b]pyridin-4-yl)-4-piperazin-1-yl-pyrido[3,4-d]pyrimidine], under 100 nM; as for `C[C@H]1CN(c2nc(-c3ccnc4[nH]c(C(F)(F)F)cc34)nc3cncc(C4CC4)c23)CCN1` [Example 1233, 5-Cyclopropyl-4-((S)-3-methyl-piperazin-1-yl)-2-(2-trifluoromethyl-1H-pyrrolo[2,3-b]pyridin-4-yl)-pyrido[3,4-d]pyrimidine], under 100 nM. The same measure for `FC(F)(F)c1cc2c(-c3nc(N4CCNC(C(F)(F)F)C4)c4c(C5CC5)cncc4n3)ccnc2[nH]1` (stereo not shown) [Example 1236, 5-Cyclopropyl-4-(3-trifluoromethyl-piperazin-1-yl)-2-(2-trifluoromethyl-1H-pyrrolo[2,3-b]pyridin-4-yl)-pyrido[3,4-d]pyrimidine]: 1000 to 10000 nM; for `FC(F)(F)c1cc2c(-c3nc(N4CCCCC4)c4c(C5CC5)cncc4n3)ccnc2[nH]1` [Example 1237, 5-Cyclopropyl-4-piperidin-1-yl-2-(2-trifluoromethyl-1H-pyrrolo[2,3-b]pyridin-4-yl)-pyrido[3,4-d]pyrimidine]: 100 to 1000 nM; for `FC(F)(F)C1(c2cc3c(-c4nc(N5CCNCC5)c5c(C6CC6)cncc5n4)ccnc3[nH]2)CC1` [Example 1238, 5-Cyclopropyl-4-piperazin-1-yl-2-[2-(1-trifluoromethyl-cyclopropyl)-1H-pyrrolo[2,3-b]pyridin-4-yl]-pyrido[3,4-d]pyrimidine]: under 100 nM. With `OC1CCN(c2nc(-c3ccnc4[nH]c(C(F)(F)F)cc34)nc3cncc(C4CC4)c23)CC1` [Example 1239, 1-[5-Cyclopropyl-2-(2-trifluoromethyl-1H-pyrrolo[2,3-b]pyridin-4-yl)-pyrido[3,4-d]pyrimidin-4-yl]-piperidin-4-ol], the IC50 was under 100 nM. As for `c1ccc(C2(c3cc4c(-c5nc(N6CCNCC6)c6c(C7CC7)cncc6n5)ccnc4[nH]3)CC2)cc1` [Example 1240, 5-Cyclopropyl-2-[2-(1-phenyl-cyclopropyl)-1H-pyrrolo[2,3-b]pyridin-4-yl]-4-piperazin-1-yl-pyrido[3,4-d]pyrimidine], the figure is under 100 nM.
